Assay results published in patent US5792742A, “Fibrin-binding peptide fragments of fibronectin” (New York University, priority 1994, dated 1998).

Assays:
[1] = tested on: fibrin; experiment: Direct binding ELISA on fibrin-coated microtiter plates
Experimental: The preparation of fibrin coated microtiter plates was adapted from a method described by Christman et al., Biochim. Biophys. Acta. […] Microtiter (Immulon) plates were coated with fibrinogen at a concentration of 50-1000 ng/well/0.1 ml of Tris buffered saline (TBS). The plates were dried for 24 hours at 37° C. and 0.1 ml of thrombin (20 NIH units/100 ml) containing TRASYLOL™ (aprotinin) (400 K.I units/100 ml) in TBS was added to each well and the plates incubated for 2 hours at 37° C. Each well is washed one time with PBS and the plates are blocked for 1.5 hours with 1% BSA in TBS to prevent non-specific binding. A constant concentration of fibronectin and the 11 kDa fibrin-binding polypeptide (500 ng/0.1 ml) in 50 mM Tris-HCl, 0.1M NaCl, pH 7.6 (FBB) were incubated separately with fibrin coated microtiter wells (50-1000 ng) for 1 hr at room temperature (23° C.).
The wells were washed three times with FBB containing 0.05% Tween 20 (FBBT) and incubated for 1 hour with 0.05 ml of the a polyclonal anti-fibronectinantiserum (Calbiochem) or the purified IgG fraction of anti-11 kDa rabbit antisera, respectively, at a concentration of 1 μg/ml in FBBT containing 0.1% BSA (FBBT/BSA). Following three washes with FBBT, the wells were incubated with 0.05 ml of alkaline phosphatase labeled goat anti-rabbit IgG (TAGO) at a concentration of 2 μg/ml in FBBT/BSA, for 1 hour. The reaction was developed with 0.05 ml of […] p-nitrophenyl phosphate (Sigma phosphatase substrate tablets) in 10% diethanolamine, pH 9.8 containing 1 mM MgCl2.
2. […] Binding of ^4 F1.^5 F1 to fibrin coated microtiter plates was examined by ELISA as described above. Microtiter wells were coated with fibrin (50-1000 ng) and blocked, as described earlier, and incubated with the module pair ^4 F1.^5 F1 (500 ng/0.1 ml or 1000 ng/0.1 ml in FBB) for 1 hour, at room temperature.
Fibrin-binding activity was also assessed by an ELISA. Fn was reacted with fibrin-coated microtiter plates and bound Fn was determined by incubation with a polyclonal rabbit anti-Fn antiserum followed by alkaline phosphatase-labeled anti-rabbit Ig.

[2] = tested on: fibrin; experiment: Fibrin-SEPHAROSE affinity chromatography (binding and elution); set-up: species or system bovine; conditions: temperature change vs denaturing conditions (6M urea or 50% ethylene glycol) for elution
Experimental: Bovine fibrinogen was cross-linked to CNBr-activated SEPHAROSE™ (5 mg/ml beads) according to the manufacturer's instructions. Coupled fibrinogen was subsequently converted to fibrin by incubation with human thrombin to a final concentration of 5 NIH units/ml and 100 K.I. (kallikrein inhibitory) units/ml of aprotinin (in 0.05M Tris-HCI buffer, pH 7.6, containing 0.1M NaCl and 0.01M EDTA) for three hours, at room temperature (Gold, et al. (1983) Biochemistry 22, 4113-4119).
1.0M NaCl in 0.05M tris buffer, pH 8.0.
The fibrin-binding activity of the proteolytically derived 25.9 kDa fragment of Fn was determined by its ability to bind to a fibrin affinity matrix. […] FBB was used to equilibrate and wash the column. Following warming of the column to 22° C., the column was washed with FBB until absorbance at 280 nm (A280) was less than 0.01, and bound protein eluted with 0.05M Tris-HCl, 0.5M NaCl, 6M urea buffer, pH 7.6.
The module (500 μg/1.0 ml) was incubated for 4 hours (while rotating) at 4° C. in the presence of 1.0 ml fibrin-SEPHAROSE™ (5 mg fibrin/ml SEPHAROSE™ beads) equilibrated in […] Tris-HCl, 0.1M NaCl buffer, pH 7.6.
The 11 KDa peptide (50 μg/0.206 ml) was radiolabeled using the IODO-BEAD method (Pierce Chemical). The peptide was added to one IODO-BEAD in the presence of 100 μCi ^125 I (17.4 Ci/mg, New England Nuclear) and incubated on ice for 10 minutes. The bead was removed and the free ^125 I removed by chromatography through a PD10 column containing SEPHADEX™ G-25 (Pharmacia). […] The radioiodinated 11 kDa fibrin-binding peptide (500 μg/1.5 ml) was combined with 1 ml of fibrin-SEPHAROSE™ (5 mg fibrin/ml beads) equilibrated with 50 mM Tris-HCl, 0.1M NaCl buffer, pH 7.6, and rotated for 4 hours, at 4° C. The mixture was poured onto a disposable column (0.6 cm×8.0) and the unbound protein washed through. The column was equilibrated to room temperature and washed with the equilibration buffer.

[3] = tested on: thrombi; experiment: Preliminary thrombus binding dose experiment in rats; type: in vivo; conditions: 3.4 μCi/13.3 μg/rat (550 gr)
Experimental: Determination of thrombus to blood and thrombus to muscle ratios: Before performing the pharmacokinetic studies, the arterial and venous vessels of the same animals are wounded until a thrombus is formed. The ascending vena cava (below the kidneys) and the descending aorta (immediately above the bifurcation) are clamped with a rubber tipped mosquito clamps for 2 hours for the artery and one hour for the vein. A thrombotic occlusion is formed of approximately 1.5 cm length. The specific binding of ^125 I-FBP (11 kDa to start) to the preformed thrombus, is determined compared to blood and muscle (wt/wt), over time, following injection. The amount of ^125 I-FBP that binds to an injured vessel versus an uninjured vessel is also quantitated. The time for optimal binding is crucial for feasibility of imaging (less than two hours would be considered adequate). The testing of binding to thrombi prepared 24 hours (or longer) ahead (preformed thrombi) compared to newly formed thrombi is also performed. This will determine the efficacy of ^125 I-FBP to older and newly forming thrombi.
Dosimetry Studies: Determination of the optimal dose (μCi/μg/kg) required for binding (Dose response) to thrombi: Three different doses were injected following injury, and thrombi removed at the various indicated above.

[4] = tested on: fibrin; experiment: Elution of 11 kDa fragment from fibrin-SEPHAROSE with various agents (Table III); type: binding, bovine; conditions: rotated in the cold overnight
Experimental: Since complete recovery of fibrin-binding activity was desired for use of the molecule in clinical application, various buffers were tested in an attempt to optimize recovery of the peptide while retaining maximal biological activity.

[5] = tested on: fibrinogen; experiment: Binding of eluted 11 kDa fragment to fibrinogen-SEPHAROSE column; conditions: 37° C.; ethylene glycol eluted material
[6] = tested on: fibrin; experiment: Competitive inhibition of 125I-11 kDa binding to fibrin-coated wells; conditions: 125I-11 kDa 90 nM
Experimental: Analysis of the binding data was performed by non linear regression and curve fitting to the one-site competitive binding curves (GraphPad Prism).

11 kDa FBP: 11 kDa C-terminal proteolytic (subtilisin) fibrin-binding fragment of human plasma fibronectin, residues 2123-2232 of SEQ ID NO:1
amount bound relative to intact fibronectin on a mole-per-mole basis [1]: 20 times
amount giving maximum binding per 550 ng of fibrin [1]: approximately 500 ng
binding to fibrin-coated wells ([1]; ELISA, room temperature, 1 hr): bound to the fibrin-coated wells in a concentration dependent manner
relative affinity for fibrin (from elution conditions) [2]: markedly higher
binding to thrombi compared to blood [3]: sufficient binding to thrombi compared to blood
% ELUTED from fibrin-SEPHAROSE ([4]; agent 1.0M Arginine, listed as 11 kDa FIBRIN-BINDING FRAGMENT): 26%
% ELUTED from fibrin-SEPHAROSE ([4]; agent 1.0M Arginine, listed as 11 kDa peptide): 25%
% ELUTED from fibrin-SEPHAROSE ([4]; agent 1.0M KBr): 55-65%
% ELUTED from fibrin-SEPHAROSE ([4]; agent 2.0M Urea): 32%
% ELUTED from fibrin-SEPHAROSE ([4]; agent 4.0M Urea): 50-60%
% ELUTED from fibrin-SEPHAROSE ([4]; agent 6.0M Urea): 100%
% ELUTED from fibrin-SEPHAROSE ([4]; agent 50% ethylene glycol, pH 11.5): 77%
% of applied material bound to fibrinogen-SEPHAROSE column [5]: 4-5%
concentration at which maximum inhibition was achieved [6]: 4 µM
molar excess at maximum inhibition [6]: 44.4
IC50 ([6]; 15 ng fibrin, 1 hour 22° C., read-out: IC50, 125I-11 kDa binding to fibrin decreased by 50%): 0.605 µM
